Data as given in patent US20200385423A1, “USE OF EXCITATORY NERVE INJURY-RELATED POLYPEPTIDE IN PREVENTING, ALLEVIATING OR TREATING PAIN” (Biocells (Beijing) Biotech Co., Ltd., priority 2016, published 2020).

Experiments:
Type in all cases: in vivo, rat
SD rats [1] = assay: Hot plate experiment in rats with sciatic nerve ligation; settings: for paw lifting time threshold due to heating pain at surgical side after administration: P5 0.2 μg/kg caudal vein, ibuprofen 50 mg/kg intragastric
Description: Eighteen male SD rats of 240-260 g (purchased from Huafukangcheng Co., Ltd.) were selected as experimental rats, and divided into three groups with six rats in each group for a hot plate experiment, including a group administered with Polypeptide P5 at a dose of 0.2 μg/kg, a group administered with normal saline and a group administered with positive control drug (ibuprofen, 50 mg/kg). Screening was conducted before the experiment.
(§1) 4.0 chromic catguts (purchased from Shandong Boda Medical Products Co., Ltd.) were immersed into normal saline (purchased from Shijiazhuang Four Medicine Co., Ltd., National Pharmaceutical Standard H13023200) for 30 minutes for softening. Rats were shaved in the middle of their thighs, and wiped with iodine. Wound at 1 cm below the epidermis was created with a scissor, and then a J31060 hemostat was used to tear the biceps femoris. The sciatic nerve was thus exposed at the middle of the thighs. The end proximal to the leg was the trigeminal sciatic nerve. The sciatic nerve at the middle of the thighs was gently ligated four times with the 4.0 chromic catguts. The force was deemed appropriate if muscles near the ligation site slightly trembled. The adjacent ligation sites were 1 mm apart. Then muscles and epidermal tissues were sutured separately.
(§2) Before the experiment, the rats with successful surgery in the test group were injected via caudal vein with Peptide P5 in normal saline (dose at 0.2 μg/kg). Rats in normal saline group were intraperitoneally injected with 0.3 mL of normal saline. The positive drug group was administered via intragastric infusion with ibuprofen suspension (purchased from Shanghai Qiangsheng Pharmaceutical Co., Ltd., National Pharmaceutical Standard H19991011) at a dose of 50 mg/kg.
Hot plate experiments were performed on rats 7 days after surgery. Rats were feed properly, and the indoor environment was maintained at about 25° C. The temperature of the YLS-6B intelligent hot plate instrument (purchased from Beijing Zhongshi Di Chuang Technology Development Co., Ltd.) was set at about 55° C. The rats were placed on the hot plate instrument in a closed, detachable, and transparent plexiglass jar, and the time of occurrence of the hind paw licking or jump reaction was recorded. If there no reaction was observed from the rats with administration 20 seconds after placement in the jar, the SD rats were taken out to avoid scalding the paws due to too long heating. The pain threshold of such rats was calculated as 20 seconds. Each rat was tested twice in succession with the interval of at least 30 seconds. The average of results was calculated.
At the end of the experiment, the heating pain response time (i.e., pain threshold in second) of rats in the normal saline control group and individual drug-administered groups before administration and 10 min, 70 min, and 130 min after administration was recorded.
EXCEL's T-test function (two-tailed variance) was used to analyze the statistical difference between the paw lifting time thresholds due to heating pain of pre-modeling and post-modeling experimental rats to evaluate whether or not the modeling was successful. The difference among the heating pain time thresholds before administration and at each time point after administration was then analyzed to evaluate the pharmaceutical efficacy.

SD rats [2] = assay: Needling experiment (vonFrey probe) in rats with sciatic nerve ligation; settings: for paw lifting threshold due to needling at surgical side after administration: P5 0.2 μg/kg caudal vein, ibuprofen 50 mg/kg intragastric
Description: Eighteen male SD rats of 240-260 g (purchased from Huafukangcheng Co., Ltd.) were selected as experimental rats, and divided into three groups with six rats in each group for a needling experiment, including a group administered with the polypeptide at a dose of 0.2 μg/kg, a normal saline group and a positive control drug group (ibuprofen, 50 mg/kg).
as §1, §2
Fourteen days after surgery, the rats in the administration groups were tested before administration and 10 min\70 min\130 min after administration. The experimental rats were placed in a plexiglass observation chamber to acclimate the environment for 5 minutes until the rats no longer looked around. The ZS-CTY foot needling system (purchased from Beijing Zhongshi Di Chuang Technology Development Co., Ltd.) was connected to a win7 32-bit computer. The test software was opened to calibrate the zero point of the instrument, and then calibrate again after a 10 g weight was added. The vonFrey probe was used to slowly and gently stimulate the middle parts of the testing hind paws of the rats to observe the paw withdrawal reaction of the rats. […] The paw withdrawal reaction of rats due to physical activity was excluded. The reaction was recorded twice at each time point, and averaged to obtain paw lifting force thresholds (in g) due to needling. The foot needling system (purchased from Beijing Zhongshi Di Chuang Technology Development Co., Ltd.; lot. number: 20160101060001) was adjusted to zero with a 10 g weight, there was still a fundamental read fluctuation when the bottom of the rats' paws was needled. The fluctuation was generally between +3 and +5 g, which should be subtracted from the final value. If there was still a baseline, it should be removed.
EXCEL's T-test function (two-tailed variance) was used to analyze the statistical difference in paw lifting force thresholds due to needling between the untreated side and surgical side in the experimental rats to evaluate whether or not the modeling was successful. The difference among the needling pain force thresholds before administration and at each time point after administration was then analyzed to evaluate the pharmaceutical efficacy and effect duration.

rats = assay: Acute toxicity tests on rats; settings: dose of 1000 mg/kg body weight
Description: Acute toxicity tests were performed on rats.

[3] = P5 0.2 μg/kg, ibuprofen 50 mg/kg

| SMILES | paw lifting time threshold due to heating pain at surgical side after administration (SD rats [1]; 10 min after administration) [s] | paw lifting time threshold due to heating pain at surgical side after administration (SD rats [1]; 70 min after administration) [s] | paw lifting time threshold due to heating pain at surgical side after administration (SD rats [1]; 130 min after administration) [s] | duration of therapeutic (analgesic) effect, hot plate experiment (SD rats [1]; [3]) [min] | paw lifting time threshold due to heating pain, surgical side before administration (SD rats [1]; baseline 7 days after surgery, before administration, hot plate about 55° C.) [s] | paw lifting time threshold due to heating pain, pre-modeling (control) (SD rats [1]; baseline of the group before modeling, hot plate about 55° C.) [s] | paw lifting threshold due to needling at surgical side after administration (SD rats [2]; 10 min after administration) [g] | paw lifting threshold due to needling at surgical side after administration (SD rats [2]; 70 min after administration) [g] | paw lifting threshold due to needling at surgical side after administration (SD rats [2]; 130 min after administration) [g] | duration of therapeutic (analgesic) effect, needling experiment (SD rats [2]; [3]) [min] | paw lifting threshold due to needling at surgical side before administration (SD rats [2]; baseline 14 days after surgery, before administration) [g] | paw lifting threshold due to needling, healthy side (control) (SD rats [2]; healthy side of the group, control value) [g] | acute toxicity (rats) |
| --- | --- | --- | --- | --- | --- | --- | --- | --- | --- | --- | --- | --- | --- |
| CC(C)Cc1ccc(C(C)C(=O)O)cc1 (stereo not shown) [ibuprofen] | 5.74 | 4.64 | 4.19 | < 130 | 3.95 | 12.5 | 46.24 | 36.21 | 38.88 | < 130 | 28.72 | 73.65 |  |
| CC[C@H](C)[C@H](NC(=O)[C@H](CCC(=O)O)NC(=O)[C@@H](NC(=O)[C@H](CC(=O)O)NC(=O)[C@H](CC(C)C)NC(=O)[C@H](CC(C)C)NC(=O)[C@H](CCCCN)NC(=O)[C@H](CCC(=O)O)NC(=O)[C@H](Cc1ccc(O)cc1)NC(=O)[C@H](CCCNC(=N)N)NC(=O)[C@H](CCCNC(=N)N)NC(=O)[C@H](CCCNC(=N)N)NC(=O)[C@H](CCC(N)=O)NC(=O)[C@H](CCCNC(=N)N)NC(=O)[C@H](CCCNC(=N)N)NC(=O)[C@H](CCCCN)NC(=O)[C@H](CCCCN)NC(=O)[C@H](CCCNC(=N)N)NC(=O)CNC(=O)[C@@H](N)Cc1ccc(O)cc1)[C@@H](C)O)C(=O)O [Polypeptide P5] |  |  |  |  |  |  |  |  |  |  |  |  | no lethal effect and other obvious toxic side effects |
